Tests used:
Type in all cases: cell-based
OVCAR-8 = assay: NCI 60 cell line screen (SRB), Ovarian Cancer
OVCAR-3 = assay: NCI 60 cell line screen (SRB), Ovarian Cancer; settings: PG=0
TK-10 = assay: NCI 60 cell line screen (SRB), Renal Cancer; settings: PG=+50
HOP-62 = assay: NCI 60 cell line screen (SRB), Non-Small Cell Lung Cancer; settings: PG=+50
UACC-62 = assay: NCI 60 cell line screen (SRB), Melanoma
MDA-MB231/ATCC = assay: NCI 60 cell line screen (SRB), Breast Cancer; settings: MDA- (first line of MDA-MB231/ATCC); PG=0
NCI-H460 = assay: NCI 60 cell line screen (SRB), Non-Small Cell Lung Cancer; settings: PG=0
RPMI-8226 = assay: NCI 60 cell line screen (SRB), Leukemia
SW-620 = assay: NCI 60 cell line screen (SRB), Colon Cancer
ACHN = assay: NCI 60 cell line screen (SRB), Renal Cancer; settings: PG=0
LOX IMVI = assay: NCI 60 cell line screen (SRB), Melanoma
KM12 = assay: NCI 60 cell line screen (SRB), Colon Cancer
NCI-H522 = assay: NCI 60 cell line screen (SRB), Non-Small Cell Lung Cancer
HT29 = assay: NCI 60 cell line screen (SRB), Colon Cancer
786-0 = assay: NCI 60 cell line screen (SRB), Renal Cancer
COLO 205 = assay: NCI 60 cell line screen (SRB), Colon Cancer
U251 = assay: NCI 60 cell line screen (SRB), CNS Cancer
SR = assay: NCI 60 cell line screen (SRB), Leukemia; settings: Table IV (LC50, PG=−50)
SNB-19 = assay: NCI 60 cell line screen (SRB), CNS Cancer; settings: PG=0
NCI-H322M = assay: NCI 60 cell line screen (SRB), Non-Small Cell Lung Cancer; settings: PG=+50
MDA-MB-435 = assay: NCI 60 cell line screen (SRB), Breast Cancer; settings: MDA-MB−435; PG=+50
BT-549 = assay: NCI 60 cell line screen (SRB), Breast Cancer; settings: PG=+50
RXF 393 = assay: NCI 60 cell line screen (SRB), Renal Cancer
IGROVI = assay: NCI 60 cell line screen (SRB), Ovarian Cancer
MCF7 = assay: NCI 60 cell line screen (SRB), Breast Cancer
OVCAR-5 = assay: NCI 60 cell line screen (SRB), Ovarian Cancer
MALME-3M = assay: NCI 60 cell line screen (SRB), Melanoma
CAKI-1 = assay: NCI 60 cell line screen (SRB), Renal Cancer; settings: Table IV (LC50, PG=−50)
NCI-H226 = assay: NCI 60 cell line screen (SRB), Non-Small Cell Lung Cancer

In the case of `CC(=O)O[C@H]1C(=O)[C@@]2(C)[C@H]([C@H](OC(=O)c3ccccc3)[C@]3(O)C[C@H](OC(=O)[C@H](O)[C@@H](NC(=O)c4ccccc4)c4ccccc4)C(C)=C1C3(C)C)[C@]1(OC(C)=O)CO[C@@H]1C[C@@H]2O` [Paclitaxel, paclitaxel, reference compound], the Log10GI50 (OVCAR-8; PG=+50) is reported as −10.75 log10M, the Log10GI50 (OVCAR-8; Table IV (LC50, PG=−50)) is reported as >−4.00 log10M and the Log10TGI (OVCAR-3) is reported as −4.55 log10M. It also gave a Log10GI50 (TK-10) of −7.89 log10M, a Log10GI50 (HOP-62) of −9.67 log10M and a Log10TGI (UACC-62; PG=0) of −4.71 log10M. For the same compound, the Log10GI50 (UACC-62; PG=+50) was −10.46 log10M, the Log10GI50 (UACC-62; Table IV (LC50, PG=−50)) was −4.19 log10M and the Log10TGI (MDA-MB231/ATCC) was −4.84 log10M. The Log10TGI (NCI-H460) was −4.46 log10M, the Log10TGI (RPMI-8226; PG=0) was <-13.00 log10M and the Log10GI50 (RPMI-8226; PG=+50) was <−13.00 log10M. The Log10GI50 (RPMI-8226; Table IV (LC50, PG=−50)) was >−4.00 log10M, the Log10TGI (SW-620; PG=0) was >−4.00 log10M and the Log10GI50 (SW-620; PG=+50) was −11.60 log10M. It also gave a Log10TGI (ACHN) of −4.90 log10M, a Log10TGI (LOX IMVI; PG=0) of −4.65 log10M and a Log10GI50 (LOX IMVI; PG=+50) of −11.80 log10M. The Log10GI50 (LOX IMVI; Table IV (LC50, PG=−50)) was −4.15 log10M, the Log10TGI (KM12; PG=0) was −4.36 log10M and the Log10GI50 (KM12; PG=+50) was −11.43 log10M. For the same compound, the Log10GI50 (KM12; Table IV (LC50, PG=−50)) was >−4.00 log10M, the Log10TGI (NCI-H522; PG=0) was −4.92 log10M and the Log10GI50 (NCI-H522; PG=+50) was <−13.00 log10M. For the same compound, the Log10GI50 (NCI-H522; Table IV (LC50, PG=−50)) was >−4.00 log10M, the Log10GI50 (HT29; PG=+50) was <-13.00 log10M and the Log10GI50 (HT29; Table IV (LC50, PG=−50)) was −4.39 log10M. For the same compound, the Log10TGI (786-0; PG=0) was >−4.00 log10M, the Log10GI50 (786-0; PG=+50) was −8.01 log10M and the Log10GI50 (786-0; Table IV (LC50, PG=−50)) was >−4.00 log10M. The Log10GI50 (COLO 205; PG=+50) was −11.07 log10M, the Log10GI50 (COLO 205; Table IV (LC50, PG=−50)) was >−4.41 log10M and the Log10TGI (U251; PG=0) was −4.32 log10M. For the same compound, the Log10GI50 (U251; PG=+50) was −11.29 log10M, the Log10GI50 (U251; Table IV (LC50, PG=−50)) was −4.15 log10M and the Log10GI50 (SR) was >−4.00 log10M. For the same compound, the Log10TGI (SNB-19) was >−4.00 log10M, the Log10GI50 (NCI-H322M) was −10.12 log10M and the Log10GI50 (MDA-MB-435) was <-13.00 log10M. For the same compound, the Log10GI50 (BT-549) was −9.81 log10M, the Log10TGI (RXF 393; PG=0) was >−4.00 log10M and the Log10GI50 (RXF 393; PG=+50) was −8.32 log10M. For the same compound, the Log10GI50 (RXF 393; Table IV (LC50, PG=−50)) was >−4.00 log10M, the Log10TGI (IGROVI; PG=0) was −4.19 log10M and the Log10GI50 (IGROVI; PG=+50) was −8.61 log10M. The Log10GI50 (IGROVI; Table IV (LC50, PG=−50)) was >−4.00 log10M, the Log10GI50 (MCF7; PG=+50) was −11.69 log10M and the Log10GI50 (MCF7; Table IV (LC50, PG=−50)) was >−4.00 log10M. For the same compound, the Log10TGI (OVCAR-5; PG=0) was −4.92 log10M, the Log10GI50 (OVCAR-5; PG=+50) was −9.38 log10M and the Log10GI50 (OVCAR-5; Table IV (LC50, PG=−50)) was >−4.00 log10M. The Log10TGI (MALME-3M; PG=0) was −4.46 log10M, the Log10GI50 (MALME-3M; Table IV (LC50, PG=−50)) was −4.11 log10M and the Log10GI50 (CAKI-1) was >−4.00 log10M. The Log10TGI (NCI-H226; PG=0) was −4.80 log10M and the Log10GI50 (NCI-H226; Table IV (LC50, PG=−50)) was −4.10 log10M.
